PMC12022903, “Evaluation of drug-drug interaction between Suraxavir Marboxil (GP681) and itraconazole, and assessment of the impact of gene polymorphism” (Frontiers in Pharmacology, 2025)
Like-named read-outs stand apart in the source and are kept apart here.

What was measured:
[1] = assay type: in vivo
Description: This single-center, open-label, self-controlled, fixed-sequence study, sponsored by Qingfeng Pharmaceutical Group Co., Ltd., was conducted at a single clinical research site in the China–Japan Friendship Hospital (Beijing, China). Each subject received the following treatment: Suraxavir Marboxil (GP681) 20 mg in the fasted state on day 1 and day 26. Itraconazole capsules (Sporanox®: Xi’an Yangsen Pharmaceutical Co., Ltd., China) 0.2 g twice daily (BID, bis in die) on day 22. Itraconazole 0.2 g daily from day 23 to day 36 [including day 26, when itraconazole was co-administrated with Suraxavir Marboxil (GP681)]. The washout period is 21 days (Figure 2).
Safety was assessed through physical examination, vital sign measurements, clinical laboratory tests, 12-lead electrocardiograms, and assessment of self-reported symptoms. Adverse events were collected from the first dose through the end of the study. All safety data collected were assessed for severity and relationship to each study drug, Suraxavir Marboxil (GP681) or itraconazole. The severity of an adverse event was graded according to Common Terminology Criteria for Adverse Events (CTCAE) v5.0. For each adverse event occurred, investigators continued to follow up until it was resolved. Adverse event analysis is based on Safety Set (SS), coded with MedDRA version 26.0. Adverse events will be summarized by system organ class (SOC) and preferred term (PT) in terms of number of cases, occurrences, and incidence rate.

[2] = test system: liver enzymes; design: method as in unpublished data; conditions: preclinical studies; ref unpublished data; cited from earlier work
[3] = design: method as in unpublished data; conditions: preclinical studies; ref unpublished data; cited from earlier work
[4] = quantification limit 0.3 ng/mL
[5] = test system: MDR1; design: method as in unpublished data; conditions: preclinical studies; ref unpublished data; cited from earlier work
[6] = test system: OAT1; design: method as in unpublished data; conditions: preclinical studies; ref unpublished data; cited from earlier work
[7] = test system: OATP1B1; design: method as in unpublished data; conditions: preclinical studies; ref unpublished data; cited from earlier work
[8] = test system: BCRP; design: method as in unpublished data; conditions: preclinical studies; ref unpublished data; cited from earlier work
[9] = design: method as in unpublished data; conditions: within 336 h after oral administration; ref unpublished data; cited from earlier work
[10] = test system: OATP1B3; design: method as in unpublished data; conditions: preclinical studies; ref unpublished data; cited from earlier work
[11] = test system: MDR1; design: method as in unpublished data; conditions: preclinical studies; ref unpublished data; cited from earlier work; remark: listed apart in the source
[12] = test system: carboxylesterase CES2; design: method as in unpublished data; conditions: preclinical studies; ref unpublished data; cited from earlier work
[13] = test system: OAT3; design: method as in unpublished data; conditions: preclinical studies; ref unpublished data; cited from earlier work
[14] = N = 12, treatment stage given by label

Structure (SMILES): CCC(C)n1ncn(-c2ccc(N3CCN(c4ccc(OCC5COC(Cn6cncn6)(c6ccc(Cl)cc6Cl)O5)cc4)CC3)cc2)c1=O (stereo not shown) [Itraconazole]
- TEAE Alanine aminotransferase increased: no. of TEAEs [1, 14]: 1
- TEAE Alanine aminotransferase increased: no. of subjects (percent of subjects) [1, 14]: 1 (8.3)
- TEAE Basophil count increased: no. of subjects (percent of subjects) [1, 14]: 0
- TEAE Gamma-glutamyltransferase increased: no. of subjects (percent of subjects) [1, 14]: 0
- TEAE Hemoglobin decreased: no. of subjects (percent of subjects) [1, 14]: 0
- TEAE Hepatobiliary disorders: no. of subjects (percent of subjects) [1, 14]: 1 (8.3)
- TEAE Hyperbilirubinemia: no. of subjects (percent of subjects) [1, 14]: 1 (8.3)
- TEAE Hypertriglyceridemia: no. of subjects (percent of subjects) [1, 14]: 1 (8.3)
- TEAE Hyperuricemia: no. of subjects (percent of subjects) [1, 14]: 0
- TEAE Hypophosphatemia: no. of subjects (percent of subjects) [1, 14]: 0
- TEAE Investigations: no. of TEAEs [1, 14]: 2
- TEAE Investigations: no. of subjects (percent of subjects) [1, 14]: 2 (16.7)
- TEAE Lymphocyte count decreased: no. of subjects (percent of subjects) [1, 14]: 0
- TEAE Metabolism and nutrition disorders: no. of subjects (percent of subjects) [1, 14]: 1 (8.3)
- TEAE Occult blood in urine: no. of TEAEs [1, 14]: 1
- TEAE Occult blood in urine: no. of subjects (percent of subjects) [1, 14]: 1 (8.3)
- TEAE Overall total: no. of TEAEs [1, 14]: 4
- TEAE Overall total: no. of subjects (percent of subjects) [1, 14]: 4 (33.3)
- TEAE Red blood cell increased: no. of subjects (percent of subjects) [1, 14]: 0
- TEAE Total bile acid increased: no. of subjects (percent of subjects) [1, 14]: 0
- TEAE White blood cell increased: no. of subjects (percent of subjects) [1, 14]: 0
- TEAE Overall total: no. of subjects (percent of subjects) ([1]; N = 12, treatment stage given by label, listed as itraconazole): 4

Structure (SMILES): COC(=O)OCOc1c2n(ccc1=O)N([C@@H]1c3ccccc3SCc3c1ccc(F)c3F)[C@@H]1COC3(CC3)CN1C2=O [GP681, (((R)-12'-((S)-7,8-difluoro-6, 11-dihydro-2-benzothiophene-11-yl)-6′, 8′-dioxide-6′, 8′, 12′, 12a′-tetrahydro-1′H-, 4′H-spiro [cyclopropane-1, 3'-[1, 4]oxazine [3,4-c]pyridine and [2,1-f] [1,2, 4]triazine]-7′-yl)oxy) methyl carbonate]
- inhibition or induction of liver enzymes [2]: do not significantly inhibit or induce liver enzymes
- detection of prodrug in plasma following oral administration [3]: scarcely detected in plasma
- route of excretion [3]: mainly excreted in feces
- plasma concentrations of GP681 in all the rest of blood samples [4]: below the quantification limit
- substrate for the MDR1 transporter [5]: Neither Suraxavir Marboxil (GP681) nor its metabolite, GP1707D07, serves as substrates
- inhibition of transport activity of OAT1 [6]: nor do they inhibit the transport activity
- inhibition of transport activity of OATP1B1 [7]: nor do they inhibit the transport activity
- substrate for the BCRP transporter [8]: Neither Suraxavir Marboxil (GP681) nor its metabolite, GP1707D07, serves as substrates
- radioactivity recovery in feces [9]: 84.1%
- radioactivity recovery in urine [9]: 6.0%
- total radioactivity recovery rate [9]: 90.1%
- inhibition of transport activity of OATP1B3 [10]: nor do they inhibit the transport activity
- TEAE Alanine aminotransferase increased: no. of TEAEs [1, 14]: 1
- TEAE Alanine aminotransferase increased: no. of subjects (percent of subjects) [1, 14]: 1 (8.3)
- TEAE Basophil count increased: no. of subjects (percent of subjects) [1, 14]: 0
- TEAE Gamma-glutamyltransferase increased: no. of TEAEs [1, 14]: 1
- TEAE Gamma-glutamyltransferase increased: no. of subjects (percent of subjects) [1, 14]: 1 (8.3)
- TEAE Hemoglobin decreased: no. of TEAEs [1, 14]: 1
- TEAE Hemoglobin decreased: no. of subjects (percent of subjects) [1, 14]: 1 (8.3)
- TEAE Hepatobiliary disorders: no. of subjects (percent of subjects) [1, 14]: 0
- TEAE Hyperbilirubinemia: no. of subjects (percent of subjects) [1, 14]: 0
- TEAE Hypertriglyceridemia: no. of TEAEs [1, 14]: 1
- TEAE Hypertriglyceridemia: no. of subjects (percent of subjects) [1, 14]: 1 (8.3)
- TEAE Hyperuricemia: no. of TEAEs [1, 14]: 1
- TEAE Hyperuricemia: no. of subjects (percent of subjects) [1, 14]: 1 (8.3)
- TEAE Hypophosphatemia: no. of subjects (percent of subjects) [1, 14]: 0
- TEAE Investigations: no. of TEAEs [1, 14]: 7
- TEAE Investigations: no. of subjects (percent of subjects) [1, 14]: 4 (33.3)
- TEAE Lymphocyte count decreased: no. of TEAEs [1, 14]: 1
- TEAE Lymphocyte count decreased: no. of subjects (percent of subjects) [1, 14]: 1 (8.3)
- TEAE Metabolism and nutrition disorders: no. of TEAEs [1, 14]: 2
- TEAE Metabolism and nutrition disorders: no. of subjects (percent of subjects) [1, 14]: 2 (16.7)
- TEAE Occult blood in urine: no. of TEAEs [1, 14]: 1
- TEAE Occult blood in urine: no. of subjects (percent of subjects) [1, 14]: 1 (8.3)
- TEAE Overall total: no. of TEAEs [1, 14]: 9
- TEAE Overall total: no. of subjects (percent of subjects) [1, 14]: 5 (41.7)
- TEAE Red blood cell increased: no. of TEAEs [1, 14]: 1
- TEAE Red blood cell increased: no. of subjects (percent of subjects) [1, 14]: 1 (8.3)
- TEAE Total bile acid increased: no. of TEAEs [1, 14]: 1
- TEAE Total bile acid increased: no. of subjects (percent of subjects) [1, 14]: 1 (8.3)
- TEAE White blood cell increased: no. of subjects (percent of subjects) [1, 14]: 0
- TEAE related to GP681, Alanine aminotransferase increased: no. of TEAEs [1, 14]: 1[1]
- TEAE related to GP681, Alanine aminotransferase increased: no. of subjects [1, 14]: 1[1]
- TEAE related to GP681, Gamma-glutamyltransferase increased: no. of TEAEs [1, 14]: 1[1]
- TEAE related to GP681, Gamma-glutamyltransferase increased: no. of subjects [1, 14]: 1[1]
- TEAE related to GP681, Hemoglobin decreased: no. of TEAEs [1, 14]: 1[1]
- TEAE related to GP681, Hemoglobin decreased: no. of subjects [1, 14]: 1[1]
- TEAE related to GP681, Hypertriglyceridemia: no. of TEAEs [1, 14]: 1[1]
- TEAE related to GP681, Hypertriglyceridemia: no. of subjects [1, 14]: 1[1]
- TEAE related to GP681, Hypophosphatemia: no. of TEAEs [1, 14]: 1[1]
- TEAE related to GP681, Hypophosphatemia: no. of subjects [1, 14]: 1[1]
- TEAE related to GP681, Investigations: no. of TEAEs [1, 14]: 7
- TEAE related to GP681, Investigations: no. of subjects [1, 14]: 3
- TEAE related to GP681, Lymphocyte count decreased: no. of TEAEs [1, 14]: 1[1]
- TEAE related to GP681, Lymphocyte count decreased: no. of subjects [1, 14]: 1[1]
- TEAE related to GP681, Metabolism and nutrition disorders: no. of TEAEs [1, 14]: 2[2]
- TEAE related to GP681, Metabolism and nutrition disorders: no. of subjects [1, 14]: 2[2]
- TEAE related to GP681, Occult blood in urine: no. of TEAEs [1, 14]: 1[1]
- TEAE related to GP681, Occult blood in urine: no. of subjects [1, 14]: 1[1]
- TEAE related to GP681, Overall total: no. of TEAEs [1, 14]: 9
- TEAE related to GP681, Overall total: no. of subjects [1, 14]: 4
- TEAE related to GP681, Red blood cell increased: no. of TEAEs [1, 14]: 1[1]
- TEAE related to GP681, Red blood cell increased: no. of subjects [1, 14]: 1[1]
- TEAE related to GP681, Total bile acid increased: no. of TEAEs [1, 14]: 1[1]
- TEAE related to GP681, Total bile acid increased: no. of subjects [1, 14]: 1[1]
- TEAE Overall total: no. of subjects (percent of subjects) ([1]; N = 12, treatment stage given by label, listed as Suraxavir Marboxil (GP681)): 5
- TEAE related to GP681, Overall total: no. of TEAEs ([1]; Total over the study, N = 12): 11
- TEAE related to GP681, Overall total: no. of subjects ([1]; Total over the study, N = 12): 5
- serious adverse events ([1]; whole study, 12 subjects): No serious adverse events
- inhibition of transport activity of MDR1 [11]: nor do they inhibit the transport activity
- conversion of prodrug to active form [12]: converted to an active form GP1707D07 by carboxylesterase CES2
- inhibition of transport activity of OAT3 [13]: nor do they inhibit the transport activity
